Test [1] concerns the target T1, SaTrpRS (Staphylococcus aureus, UniProt P67594).
T1 construct: gene trpS; codon-optimised synthetic gene, C-terminal 6xHis tag (pET-28a), no tag cleavage told; E. coli BL21(DE3); dimer
The test can be described thus: ATP consumption, Kinase-Glo luminescence. It counts as biochemical. As to conditions: 2 μM ATP, 10 μM Trp, 40 mM MgCl2, 50 mM NH2OH instead of tRNA, pH 7.5, 37 °C, 1.5 h.

In test [2] the target is T2, EcTrpRS (Escherichia coli, UniProt P00954).
T2 construct: gene trpS; C-terminal 6xHis tag (pET-28a), no tag cleavage told; E. coli BL21(DE3); two chains in asymmetric unit
The test can be described thus: ATP consumption, Kinase-Glo luminescence. The test is classed as biochemical. To be noted: 2 μM ATP, 10 μM Trp, 40 mM MgCl2, 50 mM NH2OH instead of tRNA, pH 7.5, 37 °C; Trp site.

The target in test [3] is T2, EcTrpRS. The test can be described thus: X-ray crystal structure. The test is classed as binding.
Test [4] concerns the target T1, SaTrpRS. The experiment in a line: X-ray crystal structure. The test is classed as binding. As to conditions: Trp site.
Test [5] concerns the target T1, SaTrpRS. The experiment in a line: ATP consumption, Kinase-Glo luminescence. It counts as biochemical. As to conditions: 2 μM ATP, 10 μM Trp, 40 mM MgCl2, 50 mM NH2OH instead of tRNA, pH 7.5, 37 °C; Trp site.

This note sets out measurements from publication PMC12093056, “Mechanistic insights into the ATP-mediated and species-dependent inhibition of TrpRS by chuangxinmycin” (RSC Chemical Biology, 2025).

T1 sequence (P67594 whole entry): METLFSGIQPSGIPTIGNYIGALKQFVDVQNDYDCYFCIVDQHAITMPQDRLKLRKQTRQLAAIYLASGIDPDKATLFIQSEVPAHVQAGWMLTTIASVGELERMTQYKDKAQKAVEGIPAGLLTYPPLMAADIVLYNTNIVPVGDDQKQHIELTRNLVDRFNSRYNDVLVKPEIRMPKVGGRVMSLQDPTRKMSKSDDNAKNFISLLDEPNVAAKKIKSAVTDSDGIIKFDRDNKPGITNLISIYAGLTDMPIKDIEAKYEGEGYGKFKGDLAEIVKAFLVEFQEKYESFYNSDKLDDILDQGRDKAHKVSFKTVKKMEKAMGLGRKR

Turning to `Nc1ncnc2c1ncn2[C@@H]1O[C@H](COP(=O)(O)OP(=O)(O)OP(=O)(O)O)[C@@H](O)[C@H]1O` [ATP], the “ATP consumption, Kinase-Glo luminescence” value in test [1] is on record as “The activity of TrpRS was measured vis ATP hydrolysis using Kinase-Glo® kit”.
For the compound `CC1c2c[nH]c3cccc(c23)SC1C(=O)O` (centres unmarked) [CXM, chuangxinmycin], in test [2], the inhibition result is “Inhibition of EcTrpRS by CXM, dCXM, and mCXM, as measured by ATP hydrolysis assays”. Besides, the X-ray crystal structure result in test [3] (2.24 Å, open chain A, Trp site, also ternary with ATP and Mg2+ (1.92 and 2.15 Å)) was “Chain A exists in an open state and binds to a CXM molecule”.
Take `O=C(O)C1Cc2c[nH]c3cccc(c23)S1` (centres unmarked) [dCXM, 3-demethylchuangxinmycin]: the inhibition result in test [2] is “Inhibition of EcTrpRS by CXM, dCXM, and mCXM, as measured by ATP hydrolysis assays”. Moreover, in test [3] (Trp site), the X-ray crystal structure entry was “The complex structures of these analogues with EcTrpRS and SaTrpRS were solved”.
Regarding `CC1(C)c2c[nH]c3cccc(c23)S[C@H]1C(=O)O` [mCXM, 3-methylchuangxinmycin], the X-ray crystal structure result was “The complex structures of these analogues with EcTrpRS and SaTrpRS were solved” in test [4]; “The complex structures of these analogues with EcTrpRS and SaTrpRS were solved” in test [3] (Trp site). Besides, the figures for the inhibition result in test [5] and in test [2] were “mCXM exhibits stronger inhibition of SaTrpRS compared to EcTrpRS” and “The inhibitory activity of mCXM against EcTrpRS is lower than that of CXM”, respectively.
For `N[C@@H](Cc1c[nH]c2ccccc12)C(=O)O` [tryptophan], in test [4] (2.32 Å), the X-ray crystal structure result is recorded as “SaTrpRS in complex with Trp (SaTrpRS/Trp complex)”.
For the compound `Nc1ncnc2c1ncn2[C@@H]1O[C@H](COP(=O)(O)OC(=O)[C@@H](N)Cc2c[nH]c3ccccc23)[C@@H](O)[C@H]1O` [tryptophanyl-5′-AMP], the X-ray crystal structure result in test [3] (2.24 Å, endogenous, closed chain B, enzyme-bound reaction intermediate) was “chain B is in a closed state and binds to an endogenous tryptophanyl-5′-AMP (TrpAMP) molecule”.
